Measurements: patent publication US10471046B2, “Method for treating, preventing, or reducing the risk of skin infection” (Melinta Subsidiary Corp., priority 2014, dated 2019)
In brackets after ≈: the same amount, converted by molar mass.

tested on: S. aureus; experiment: Minimum inhibitory concentrations (MICs) for S. aureus of exemplary compounds (Table 2); assay type: cell-based; conditions: Staphylococcus aureus, minimum inhibitory concentrations for S. aureus; read-out: MICs
Procedure, shortened: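 MICs (μg/mL) against S. aureus come from microtiter-tray dilution susceptibility testing per NCCLS M7-A5, comparing growth with and without compound.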

Compared with `CC(=O)NC[C@H]1CN(c2ccc(-c3ccc(CNCc4[nH]ncc4Br)cc3)c(F)c2)C(=O)O1` [Compound 4169, N-[3-(4′-{[(4-Bromo-2H-pyrazol-3-ylmethyl)-amino]-methyl}-2-fluoro-biphenyl-4-yl)-2-oxo-oxazolidin-5-(S)-ylmethyl]-acetamide], `CC(=O)NC[C@H]1CN(c2ccc(-c3ccc(CNCc4ncc[nH]4)cc3)c(F)c2)C(=O)O1` [Compound 4091, N-[3-(2-Fluoro-4′-{[(1H-imidazol-2-ylmethyl)-amino]-methyl}-biphenyl-4-yl)-2-oxo-oxazolidin-5-(S)-ylmethyl]-acetamide] is 4-fold higher in MIC: 2 µg/mL (≈ 3.87 µM) for the first, 8 µg/mL (≈ 18.3 µM) for the second.

`CCOC(=O)c1c[nH]c(SCCNCc2ccc(-c3ccc(N4C[C@H](CNC(C)=O)OC4=O)cc3F)cc2)n1` [Compound 5010, 2-[2-({4′-[5-(S)-(Acetylamino-methyl)-2-oxo-oxazolidin-3-yl]-2′-fluoro-biphenyl-4-ylmethyl}-amino)-ethylsulfanyl]-1H-imidazole-4-carboxylic acid ethyl ester] and `CC(=O)NC[C@H]1CN(c2ccc(-c3ccc(CNCc4nccn4C)cc3)c(F)c2)C(=O)O1` [Compound 4076, N-[3-(2-Fluoro-4′-{[(1-methyl-1H-imidazol-2-ylmethyl)-amino]-methyl}-biphenyl-4-yl)-2-oxo-oxazolidin-5-(S)-ylmethyl]-acetamide] are the same in MIC: 4 µg/mL (≈ 7.2 µM) for the first, 4 µg/mL (≈ 8.86 µM) for the second.

`CC(=O)NC[C@H]1CN(c2ccc(-c3ccc(COCc4ccncc4)cc3)c(F)c2)C(=O)O1` [Compound 4196, N-{3-[2-Fluoro-4′-(pyridin-4-ylmethoxymethyl)-biphenyl-4-yl]-2-oxo-oxazolidin-5-(S)-ylmethyl}-acetamide] and `CC(=O)NC[C@H]1CN(c2ccc(-c3ccc(CNCc4ccncc4)cc3)c(F)c2)C(=O)O1` [Compound 4018, N-[3-(2-Fluoro-4′-{[(pyridin-4-ylmethyl)-amino]-methyl}-biphenyl-4-yl)-2-oxo-oxazolidin-5-(S)-ylmethyl]-acetamide] are the same in MIC: 1 µg/mL (≈ 2.22 µM) for the first, 1 µg/mL (≈ 2.23 µM) for the second.

Compared with `CC(=O)NC[C@H]1CC(c2ccc(-c3ccc(CNC(=O)c4ccccc4C(=O)O)cc3)cc2)=NO1` [Compound 4106, N-{4′-[5-(R)-(Acetylamino-methyl)-4,5-dihydro-isoxazol-3-yl]-biphenyl-4-ylmethyl}-phthalamic acid], `CC(=O)NC[C@H]1CN(c2ccc(-c3ccc(CNC(=O)c4csc(NCc5ccc(Cl)cc5)n4)cc3)c(F)c2)C(=O)O1` [Compound 4207, 2-(4-Chloro-benzylamino)-thiazole-4-carboxylic acid {4′-[5-(S)-(acetylamino-methyl)-2-oxo-oxazolidin-3-yl]-2′-fluoro-biphenyl-4-ylmethyl}-amide] is 64-fold lower in MIC: 128 µg/mL (≈ 271 µM) for the first, 2 µg/mL (≈ 3.29 µM) for the second.

First: CC(=O)NC[C@H]1CN(c2ccc(-c3ccc(CN(C)Cc4cccnc4)cc3)c(F)c2)C(=O)O1 [Compound 4047, N-(3-{2-Fluoro-4′-[(methyl-pyridin-3-ylmethyl-amino)-methyl]-biphenyl-4-yl}-2-oxo-oxazolidin-5-(S)-ylmethyl)-acetamide]
Second: CC(=O)NC[C@H]1CN(c2ccc(-c3ccc(CSCc4ccncc4)cc3)c(F)c2)C(=O)O1 [Compound 4211, N-{3-[2-Fluoro-4′-(pyridin-4-ylmethylsulfanylmethyl)-biphenyl-4-yl]-2-oxo-oxazolidin-5-(S)-ylmethyl}-acetamide]
The MIC of the first is 8-fold higher: 2 µg/mL (≈ 4.32 µM) for the first, 0.25 µg/mL (≈ 0.537 µM) for the second.

Compared with `CC(=O)NC[C@H]1CN(c2ccc(-c3ccc(Cn4cc(CN)nn4)cc3)c(F)c2)C(=O)O1` [Compound 1011, N-{3-[4′-(4-Aminomethyl-[1,2,3]triazol-1-ylmethyl)-2-fluoro-biphenyl-4-yl]-2-oxo-oxazolidin-5-(S)-ylmethyl}-acetamide], `CC(=O)NC[C@H]1CN(c2ccc(-c3ccc(Cn4cnc5c(=O)[nH]cnc54)cc3)c(F)c2)C(=O)O1` [Compound 1111, N-{3-[2-Fluoro-4′-(6-oxo-1,6-dihydro-purin-9-ylmethyl)-biphenyl-4-yl]-2-oxo-oxazolidin-5-(S)-ylmethyl}-acetamide] is 2-fold higher in MIC: 1 µg/mL (≈ 2.28 µM) for the first, 2 µg/mL (≈ 4.2 µM) for the second.

First: CC(=O)NC[C@H]1CN(c2ccc(-c3ccc(CNC4CNC4)cc3)c(F)c2)C(=O)O1 (racemic) [Compound 2011, N-{3-[4′-(Azetidin-3-(R/S)-ylaminomethyl)-2-fluoro-biphenyl-4-yl]-2-oxo-oxazolidin-5-(S)-ylmethyl}-acetamide]
Second: CC(=O)NC[C@H]1CN(c2ccc(-c3ccc(C[S+]([O-])c4ccncc4)cc3)c(F)c2)C(=O)O1 (stereo partly drawn) [Compound 2022, N-{3-[2-Fluoro-4′-(pyridine-4-sulfinylmethyl)-biphenyl-4-yl]-2-oxo-oxazolidin-5-(S)-ylmethyl}-acetamide]
The MIC of the first is 4-fold higher: 8 µg/mL (≈ 19.4 µM) for the first, 2 µg/mL (≈ 4.28 µM) for the second.

Compared with `CC(=O)NC[C@H]1CN(c2ccc(-c3ccc(C(NC(=O)OCc4ccccc4)c4nn[nH]n4)cc3)c(F)c2)C(=O)O1` (mixture of isomers) [Compound 1039, [{4′-[5-(S)-(Acetylamino-methyl)-2-oxo-oxazolidin-3-yl]-2′-fluoro-biphenyl-4-yl}-(2H-tetrazol-5-(R/S)-yl)-methyl]-carbamic acid benzyl ester], `CC(=O)NC[C@H]1CN(c2ccc(-c3ccc(NC(=O)NCc4ccccn4)cc3)c(F)c2)C(=O)O1` [Compound 6005, N-{3-[2-Fluoro-4′-(3-pyridin-2-ylmethyl-ureido)-biphenyl-4-yl]-2-oxo-oxazolidin-5-(S)-ylmethyl}-acetamide] is 130-fold lower in MIC: 128 µg/mL (≈ 229 µM) for the first, 1 µg/mL (≈ 2.09 µM) for the second.

First: CC(=O)NC[C@H]1CN(c2ccc(-c3ccc(C(=O)NCc4ccco4)cc3)c(F)c2)C(=O)O1 [Compound 4111, 4′-[5-(S)-(Acetylamino-methyl)-2-oxo-oxazolidin-3-yl]-2′-fluoro-biphenyl-4-carboxylic acid (furan-2-ylmethyl)-amide]
Second: CC(=O)NC[C@H]1CN(c2ccc(-c3ccc(Cn4cccc4)nc3)c(F)c2)C(=O)O1 [Compound 1071, N-{3-[3-Fluoro-4-(6-pyrrol-1-ylmethyl-pyridin-3-yl)-phenyl]-2-oxo-oxazolidin-5-(S)-ylmethyl}-acetamide]
The MIC of the first is 8-fold higher: 2 µg/mL (≈ 4.43 µM) for the first, 0.25 µg/mL (≈ 0.612 µM) for the second.

Compared with `CC(=O)NC[C@H]1CN(c2ccc(-c3ccc(C(N)c4nnn(C)n4)cc3)c(F)c2)C(=O)O1` (mixture of isomers) [Compound 1042, N-(3-{4′-[Amino-(2-methyl-2H-tetrazol-5-(R/S)-yl)-methyl]-2-fluoro-biphenyl-4-yl}-2-oxo-oxazolidin-5-(S)-ylmethyl)-acetamide], `CC(=O)NC[C@H]1CN(c2ccc(-c3ccc(CN(Cc4[nH]nnc4C)Cc4[nH]nnc4C)cc3)c(F)c2)C(=O)O1` [Compound 4270, N-[3-(4′-{[Bis-(5-methyl-3H-[1,2,3]triazol-4-ylmethyl)-amino]-methyl}-2-fluoro-biphenyl-4-yl)-2-oxo-oxazolidin-5-(S)-ylmethyl]-acetamide] is 16-fold lower in MIC: 64 µg/mL (≈ 146 µM) for the first, 4 µg/mL (≈ 7.3 µM) for the second.

Compound `CC(=O)NC[C@H]1CN(c2ccc(-c3ccc(CNCc4ccncc4)cc3)nc2)C(=O)O1` [Compound 4134, N-{2-Oxo-3-[6-(4-{[(pyridin-4-ylmethyl)-amino]-methyl}-phenyl)-pyridin-3-yl]-oxazolidin-5-(S)-ylmethyl}-acetamide] has an MIC of 16 µg/mL (≈ 37.1 µM).

same assay, conditions: minimum inhibitory concentrations for S. aureus

`CC(=O)NC[C@H]1CN(c2ccc(-c3ccc(C(CO)NCc4csnn4)cc3)c(F)c2)C(=O)O1` (mixture of isomers) [Compound 4172, N-[3-(2-Fluoro-4′-{2-hydroxy-1-[([1,2,3]thiadiazol-4-(R/S)-ylmethyl)-amino]-ethyl}-biphenyl-4-yl)-2-oxo-oxazolidin-5-(S)-ylmethyl]-acetamide] gave an MICs of 8 µg/mL.
